Results on 103 compounds are retold here after ChEMBL document CHEMBL3507680, “University of Dundee, Gates Library screen for HepG2 cell viability”.

This data set in a line: Human HepG2 cell viability assay in 384 well format. It counts as toxicity, cell-based. The arrangement: dose 125 nL, time 70.5 hour; concentration not given beside the values. To be noted: HepG2 cells, read-out: Inhibition.

Turning to `Cc1oc(CNC(=O)Cc2ccc3ccccc3c2)cc1C(=O)O`, the cytotoxicity at 70.5 h was 5.89%.
With `CC(c1nc(C2CC2)no1)N1CCN(CCc2ccncc2)CC1` (stereo not drawn) the figure was -12.6%; with `CC(C)c1noc(C(C)N2CCN(CCc3ccncc3)CC2)n1` (stereo not drawn), -16.3%; with `COC(=O)CCN(CC1CCCO1)C(=O)CCc1ccc(OC)cc1` (stereo not drawn), -7.89%.
On to `CCOc1ccc(CC(=O)N(CCC(=O)OC)CC2CCCO2)cc1` (stereo not drawn), for which the cytotoxicity at 70.5 h was -14.3%.
With `C[C@@H]1CN(Cc2ccc(-c3ccncc3)cc2F)CC(C(N)=O)O1` (stereo partly drawn) the figure was -0.906%; with `CC(O)(CNc1ccc(Cl)c(C#N)n1)c1ccccc1` (stereo not drawn), 13.8%; with `CCOc1ncccc1CNS(=O)(=O)c1ccc2c(c1)CCC2`, 4.98%.
As for `CCOc1ncccc1CNS(=O)(=O)c1ccc2c(c1)CCO2`, the figure is -2.87%; as for `CCOc1ncccc1CNS(=O)(=O)c1ccc2c(c1)CCCC(=O)N2`, -4.49%.
On to `CCn1ccnc1CN1CCN(C(C)C(=O)NCC(F)(F)F)CC1` (stereo not drawn), for which the cytotoxicity at 70.5 h worked out at 10%.
As for `CN1C(=O)CCc2cc(NS(=O)(=O)Cc3cccc(F)c3)ccc21`, the figure is -8.13%.
With `CCN1CC(COC(=O)c2ccc(Br)cc2F)CC1=O` (stereo not drawn), the cytotoxicity at 70.5 h was -6.68%.
In the case of `CC(Nc1ccc2c(c1)CCC2)c1nc(C2CC2)no1` (stereo not drawn), the cytotoxicity at 70.5 h is -3.74%.
For the compound `CCS(=O)(=O)CCN1CCN(C2CCC(C(C)C)CC2)CC1` (stereo not drawn), the cytotoxicity at 70.5 h amounted to 11.5%.
For the compound `O=C(NCC1(c2ccc(F)cc2)CCCC1)N1CCOC(CO)C1` (stereo not drawn), the cytotoxicity at 70.5 h is 2.92%.
For the compound `CC(C)C1CCC(N2CCN(CCS(C)(=O)=O)CC2)CC1` (stereo not drawn), the cytotoxicity at 70.5 h is -4.3%.
With `CC(C)C1CCC(N2CCN(CCCS(C)(=O)=O)CC2)CC1` (stereo not drawn), the cytotoxicity at 70.5 h was -3.77%.
As for `CS(=O)(=O)CCNC(=O)N1CC2(CCCC2)c2ccccc21`, the figure is 0.304%; as for `O=C1CC2(CCSC2)C(=O)N1Cc1coc(-c2cccc(F)c2)n1` (stereo not drawn), -2.41%; as for `O=C1CC2(CCSC2)C(=O)N1Cc1coc(-c2ccccc2)n1` (stereo not drawn), 2.52%.
As for `Cc1ocnc1C(=O)Nc1ccc(-c2nnc(N(C)C)o2)cc1`, the figure is -3.15%; as for `NC(=O)c1ccc(NC(=O)c2ccncc2Cl)cn1`, -4.51%.
As for `CCc1cnccc1C(=O)Nc1ccc(C(N)=O)nc1`, the cytotoxicity at 70.5 h is -4.18%.
Consider `Cc1cc(Br)ccc1CNC(=O)C1(O)CCSCC1`, for which the cytotoxicity at 70.5 h turned out to be 9.16%.
For `Cc1csc(N(C)C(=O)C2CC(=O)N(c3ccccc3Cl)C2)n1` (stereo not drawn), the cytotoxicity at 70.5 h came out at 4.48%.
With `CN(C(=O)C1CC(=O)N(CCc2ccccc2)C1)c1nccs1` (stereo not drawn) the figure was 16.6%; with `CC(Cn1cccn1)NC(=O)C1=Cc2ccccc2OC1` (stereo not drawn), -4.64%.
With `COC(=O)C(CNC(=O)Nc1nncs1)Cc1ccc(F)cc1` (stereo not drawn), the cytotoxicity at 70.5 h is -4.56%.
With `COc1ccnc(N2CCc3ccc(OC(F)F)cc3C2)n1` the figure was -2.84%; with `COc1ccc(Oc2ncccc2NC(=O)N2CCOC(C)C2)cc1` (stereo not drawn), -5.19%; with `CCc1ccc(O)c(C(=O)N2CCN(CC(=O)N(CC)CC)CC2)c1`, 1.25%.
Turning to `CNC(=O)c1sccc1S(=O)(=O)Nc1ccc(C)cc1`, the cytotoxicity at 70.5 h was -1.86%.
Turning to `N#CCCN(Cc1cccnc1)C(=O)c1ccn(-c2ccccc2)n1`, the cytotoxicity at 70.5 h was 1.01%.
On to `CCC(=O)Nc1ccc(C(C)Nc2nc3c(cnn3C)c(=O)[nH]2)cc1` (stereo not drawn), for which the cytotoxicity at 70.5 h was -5.84%.
With `O=C(CN(Cc1cccs1)c1ccc(F)cc1)NC1CCOCC1` the figure was -1.98%.
Turning to `O=C(c1ccc(Cl)cn1)N1CCC(COCc2ccccc2)C1` (stereo not drawn), the cytotoxicity at 70.5 h is 15.8%.
Regarding `CC(C)(C)C(=O)N1CCC(COCc2ccccc2)C1` (stereo not drawn), the cytotoxicity at 70.5 h is -3.49%.
As to `Cc1cc(CSCc2cc(C)on2)on1`, the cytotoxicity at 70.5 h was 12.2%.
As for `Cc1cc(CSc2ccccn2)on1`, the figure is -3.89%.
For `O=C(c1c(F)cccc1Br)N1CCCOCC1`, the cytotoxicity at 70.5 h was determined as 3.06%.
As for `CC(C)(C)c1nc2cc(NC(=O)Cn3ccc(=O)[nH]c3=O)ccc2o1`, the figure is -13.2%; as for `CCC(CC)NC(=O)c1cccnc1-n1cccn1`, 18%.
Take `CN(C)c1ccc(NC(=O)C2CN(Cc3ccccc3)CCO2)cn1` (stereo not drawn): the cytotoxicity at 70.5 h is -3.21%.
With `O=C(O)c1ccn(-c2ccccc2NS(=O)(=O)c2cccc(Cl)c2F)n1` the figure was -7.81%; with `CCCC(NC(=O)c1cscc1C)c1nnn[nH]1` (stereo not drawn), -2.41%; with `CC(CNC(=O)N1CCN(Cc2ccon2)CC1)N(C)C1CC1` (stereo not drawn), -1.74%.
In the case of `COCCN1CCCC1c1cccc2c1OCCO2` (stereo not drawn), the cytotoxicity at 70.5 h turned out to be 7.8%.
Regarding `CC(CC(=O)NCCCn1cccn1)c1cccnc1` (stereo not drawn), the cytotoxicity at 70.5 h is -6.56%.
On to `Cc1cccc(NC(=O)[C@@H]2CCCN2Cc2cnc3ccccn23)n1`, for which the cytotoxicity at 70.5 h was determined as 1.07%.
Regarding `O=C(NCCCn1cccn1)N1CCCC1c1cccs1` (stereo not drawn), the cytotoxicity at 70.5 h was -7.95%.
In the case of `Cc1cc(C)n(CC2CCCCN2CC(=O)Nc2ccncc2)n1` (stereo not drawn), the cytotoxicity at 70.5 h was -0.378%.
As to `Cc1cc(C)n(CC2CCCN2CC(=O)Nc2nnc(C)s2)n1` (stereo not drawn), the cytotoxicity at 70.5 h was 0.949%.
Regarding `CCC(Nc1nc(C(F)(F)F)nc2ccccc12)C(=O)O` (stereo not drawn), the cytotoxicity at 70.5 h amounted to 2.5%.
As to `Cc1ccc(S(=O)(=O)NCCNC(=O)c2ccoc2)cc1C`, the cytotoxicity at 70.5 h was -7.77%.
As to `CC(C)(C)OC(=O)NC(C)(C)c1noc(CSc2ccccn2)n1`, the cytotoxicity at 70.5 h is -1.21%.
As to `CCCc1ccc(S(=O)(=O)NCCNC(=O)c2ccoc2)cc1`, the cytotoxicity at 70.5 h was -6.96%.
Turning to `O=C(NCCNS(=O)(=O)c1ccc(C(F)(F)F)cc1)c1ccoc1`, the cytotoxicity at 70.5 h was -6.84%.
With `CCS(=O)(=O)c1ccc(N2CCC(NC(=O)C(C)SC)CC2)cc1` (stereo not drawn), the cytotoxicity at 70.5 h was -6.83%.
Regarding `Cn1c(C(=O)N2CCC(CC(N)=O)CC2)c(Cl)c2ccccc21`, the cytotoxicity at 70.5 h was 28.2%.
Consider `CC(=O)N1CCN(C(=O)c2c(Cl)c3ccccc3n2C)CC1`, for which the cytotoxicity at 70.5 h was -7.65%.
Consider `COc1cccc(S(=O)(=O)CCN2CCN(CC(F)F)CC2)c1`, for which the cytotoxicity at 70.5 h came out at 1.26%.
As to `Cc1ccc(NC(=O)Cc2c(C)nc3c(c2C)c(=O)[nH]n3C)cc1F`, the cytotoxicity at 70.5 h is -4.3%.
`c1nc(N2CCCCC2Cn2cncn2)c2sccc2n1` (stereo not drawn): the cytotoxicity at 70.5 h was -5.69%.
Regarding `Cc1cnn(CC2CCCN2c2ncnc3sccc23)c1` (stereo not drawn), the cytotoxicity at 70.5 h was 1.15%.
For the compound `O=C(OCc1ccccc1)c1cccc(NC(=O)C2COCCO2)c1` (stereo not drawn), the cytotoxicity at 70.5 h is 1.04%.
For the compound `CC(C)NC(=O)NCCCc1cccc(F)c1`, the cytotoxicity at 70.5 h was 0.142%.
Regarding `Cc1nn(CCO)c(C)c1CNC1CCCCc2ccccc21` (stereo not drawn), the cytotoxicity at 70.5 h was found to be 3.84%.
As to `CCc1nc(NS(=O)(=O)c2cc(C)ccc2Br)no1`, the cytotoxicity at 70.5 h was determined as 1.48%.
As to `CCOC(=O)N1CCN(C(=O)C2CC(=O)N(c3ccccc3Br)C2)CC1` (stereo not drawn), the cytotoxicity at 70.5 h was -2.99%.
Take `Cc1nc(C)n(CC2CCCN2CC(=O)Nc2nncs2)n1` (stereo not drawn): the cytotoxicity at 70.5 h is -0.801%.
Consider `Cc1ccc(S(=O)(=O)NCCc2cccnc2)cc1C`, for which the cytotoxicity at 70.5 h was -3.85%.
As for `COc1ccc(S(=O)(=O)NCCC(=O)NCc2ccoc2)cc1OC`, the figure is -11.3%.
For the compound `O=C(Nc1nncs1)NC1CCCc2c1cnn2CCO` (stereo not drawn), the cytotoxicity at 70.5 h is 4.56%.
With `CCC(CC)C(=O)Nc1ccc2oc(=O)n(CCN(C)C)c2c1` the figure was 12.5%.
For `CCC(C)C(=O)Nc1ccc2oc(=O)n(CCN(C)C)c2c1` (stereo not drawn), the cytotoxicity at 70.5 h was -1.79%.
On to `O=C(NC1CCCCC1)NC1CCCc2c1cnn2CCO` (stereo not drawn), for which the cytotoxicity at 70.5 h is -5.64%.
On to `CN(C)CCn1c(=O)oc2ccc(NC(=O)N3CCCCCC3)cc21`, for which the cytotoxicity at 70.5 h amounted to 35.5%.
For the compound `CCC(O)CN1CCN(C(=O)c2cnn(-c3ccccc3F)c2)CC1` (stereo not drawn), the cytotoxicity at 70.5 h was determined as 2.94%.
For the compound `CC/C=C(/C)C(=O)NCCc1csc(N2CCCC2)n1`, the cytotoxicity at 70.5 h is -0.998%.
Regarding `CC(C)(C)SCC(=O)NCCc1csc(N2CCCC2)n1`, the cytotoxicity at 70.5 h is -6.06%.
In the case of `O=C(O)c1csc(S(=O)(=O)Nc2c(F)cccc2-n2cccn2)c1`, the cytotoxicity at 70.5 h was 4.64%.
As for `COc1c(C)cnc(CSc2nnc(NC3CC3)s2)c1C`, the figure is -1.65%; as for `O=C1CCCN1Cc1nnc(SCc2ccc3c(c2)CCC3)o1`, 9.34%.
As for `Cc1ccc(C2COCCN2C(=O)c2cccc(N(C)C)c2)o1` (stereo not drawn), the figure is -7.51%.
For the compound `CCN(CC1CN(Cc2cccnc2)CCO1)c1cccnn1` (stereo not drawn), the cytotoxicity at 70.5 h is -0.418%.
Consider `Cc1ccc(C2COCCN2C(=O)c2ccc(C)s2)o1` (stereo not drawn), for which the cytotoxicity at 70.5 h was -9.04%.
As for `Cc1ccc(C2COCCN2C(=O)c2ccsc2)o1` (stereo not drawn), the cytotoxicity at 70.5 h is -8.5%.
On to `CCN(CC1CN(Cc2nc(C3CC3)no2)CCO1)c1cccnn1` (stereo not drawn), for which the cytotoxicity at 70.5 h was -16.6%.
As for `COc1ccc(C(=O)N(CCC#N)Cc2ccccn2)cc1`, the figure is -2.45%; as for `Cc1n[nH]c(C)c1C1COCCN1c1ncnc2sccc12` (stereo not drawn), -13%.
Turning to `CCN(CC1CN(Cc2ccccn2)CCO1)c1cccnn1` (stereo not drawn), the cytotoxicity at 70.5 h is -9.99%.
As for `CCN(CC1CN(Cc2nccn2CC)CCO1)c1cccnn1` (stereo not drawn), the figure is -9.34%.
On to `CCc1ncc2c(n1)CN(Cc1cccc3c1OCCO3)CC2`, for which the cytotoxicity at 70.5 h was -3.18%.
Turning to `CCN1CCC(NC(=O)NC2CCOc3ccc(Br)cc32)CC1` (stereo not drawn), the cytotoxicity at 70.5 h is -3.03%.
As for `Cc1noc(C)c1CN(C)C(=O)NCCOc1ccc(F)cc1F`, the figure is -6.66%.
As for `COC(=O)NCC(=O)NCC(C)(C)c1cccc(Br)c1`, the figure is -0.269%; as for `COCC(=O)N1CCCC1c1cccc(C)c1C` (stereo not drawn), 4.58%.
As for `CC(=O)N(Cc1c(F)cccc1F)C1CCCC1`, the figure is -6.67%; as for `CCc1nsc(NC2CC(=O)N(C(C)(C)C)C2)n1` (stereo not drawn), -8.26%.
Take `CC1CCCCN1C(=O)c1ccc(Br)s1` (stereo not drawn): the cytotoxicity at 70.5 h is -5.12%.
With `O=C(C[S+]([O-])Cc1ccccc1F)N1CCc2sccc2C1` (stereo not drawn) the figure was -7.21%.
On to `Cc1ccc2c(c1)CCC2NCc1c(C)nn(CCO)c1C` (stereo not drawn), for which the cytotoxicity at 70.5 h was -6.83%.
